In ChEMBL document CHEMBL1770089, “Synthesis, structure-activity relationship of novel substituted 4H-chromen-1,2,3,4-tetrahydropyrimidine-5-carboxylates as potential anti-mycobacterial and anticancer agents” (2011):
Converted amounts (≈) assume the structure as drawn. The source made the active and inactive calls. The rule behind the calls is not given here.

What was measured:
Format in all cases: functional
[1] = system: Mycobacterium tuberculosis; test: Antituberculosis activity against Mycobacterium tuberculosis H37Rv by agar dilution method
HeLa = test: Cytotoxicity against human HeLa cells after 48 hrs by MTT assay; set-up: concentration or dose not given beside the values
A549 = test: Cytotoxicity against human A549 cells after 48 hrs by MTT assay; set-up: concentration or dose not given beside the values
SK-N-SH = test: Cytotoxicity against human SK-N-SH cells after 48 hrs by MTT assay; set-up: concentration or dose not given beside the values

SMILES	MIC [1]	Activity (HeLa)	Activity (A549)	Activity (SK-N-SH)
CCOC(=O)C1=C(CCl)NC(=O)NC1c1coc2ccccc2c1=O (stereo not given)	34.5 µM (≈ 12.5 µg/mL)	23.3%	30.7%	18.6%
CCOC(=O)C1=C(C(F)(F)F)NC(=O)NC1c1coc2ccc(-c3ccccc3)cc2c1=O (stereo not given)	3.39 µM (≈ 1.55 µg/mL)	28.6%	31.3%	10.7%
CCOC(=O)C1=C(C(F)(F)F)NC(=O)NC1c1coc2cccc(C)c2c1=O (stereo not given)	3.91 µM (≈ 1.55 µg/mL)	61.3%	22%	35.9%
CCOC(=O)C1=C(C)NC(=S)NC1c1coc2ccc(Br)cc2c1=O (stereo not given)	29.7 µM (≈ 12.6 µg/mL)	41.1%	43.5%	20%
O=C(O)c1cn(C2CC2)c2cc(N3CCNCC3)c(F)cc2c1=O [CIPROFLOXACIN]	9.44 µM (≈ 3.13 µg/mL)	–	–	–
CCOC(=O)C1=C(C)NC(=O)NC1c1coc2ccc(-c3ccccc3)cc2c1=O (stereo not given)	30.7 µM (≈ 12.4 µg/mL)	45.3%	7.2%	inactive
CCOC(=O)C1=C(C)NC(=S)NC1c1coc2ccccc2c1=O (stereo not given)	72.7 µM (≈ 25 µg/mL)	49.3%	26.3%	32.7%
CCOC(=O)C1=C(c2ccccc2)NC(=O)NC1c1coc2ccccc2c1=O (stereo not given)	64.1 µM (≈ 25 µg/mL)	5.3%	15.4%	15%
CCOC(=O)C1=C(c2ccccc2)NC(=O)NC1c1coc2ccc(C)cc2c1=O (stereo not given)	30.9 µM (≈ 12.5 µg/mL)	29.8%	18.6%	inactive
COCCOC(=O)C1=C(C)NC(=S)NC1c1coc2ccccc2c1=O (stereo not given)	66.8 µM (≈ 25 µg/mL)	inactive	inactive	inactive
CCOC(=O)C1=C(c2ccccc2)NC(=O)NC1c1coc2ccc(-c3ccccc3)cc2c1=O (stereo not given)	25.9 µM (≈ 12.1 µg/mL)	inactive	inactive	inactive
COCCOC(=O)C1=C(C)NC(=O)NC1c1coc2cc3occc3cc2c1=O (stereo not given)	31.4 µM (≈ 12.5 µg/mL)	37.6%	34.7%	34.7%
COCCOC(=O)C1=C(C)NC(=O)NC1c1coc2ccccc2c1=O (stereo not given)	69.8 µM (≈ 25 µg/mL)	38.5%	23.5%	23.9%
COCCOC(=O)C1=C(C)NC(=O)NC1c1coc2ccc(-c3ccccc3)cc2c1=O (stereo not given)	57.6 µM (≈ 25 µg/mL)	33.5%	34.4%	13.4%
CCOC(=O)C1=C(C(F)(F)F)NC(=O)NC1c1coc2cc3occc3cc2c1=O (stereo not given)	7.38 µM (≈ 3.12 µg/mL)	40.9%	21.8%	6.9%
CCOC(=O)C1=C(C)NC(=O)NC1c1coc2c([N+](=O)[O-])cccc2c1=O (stereo not given)	4.18 µM (≈ 1.56 µg/mL)	60.6%	47.6%	56%
CCOC(=O)C1=C(C)NC(=O)NC1c1coc2ccc(-c3ccco3)cc2c1=O (stereo not given)	15.9 µM (≈ 6.25 µg/mL)	35.4%	34.5%	46.4%
CCOC(=O)C1=C(c2ccccc2)NC(=S)NC1c1coc2ccc(C)cc2c1=O (stereo not given)	14.9 µM (≈ 6.26 µg/mL)	31.5%	27.2%	12.1%
CCOC(=O)C1=C(C(F)(F)F)NC(=O)NC1c1coc2ccc(C)cc2c1=O (stereo not given)	7.86 µM (≈ 3.12 µg/mL)	33.5%	37.4%	45.5%
CCOC(=O)C1=C(C)NC(=O)NC1c1coc2cc3occc3cc2c1=O (stereo not given)	34 µM (≈ 12.5 µg/mL)	51.5%	29.6%	37.5%

SMILES	MIC [1]	Activity (HeLa)	Activity (A549)	Activity (SK-N-SH)
CCOC(=O)C1=C(c2ccccc2)NC(=S)NC1c1coc2ccccc2c1=O (stereo not given)	61.6 µM (≈ 25 µg/mL)	33%	9.4%	1.9%
CCOC(=O)C1=C(CCl)NC(=O)NC1c1coc2ccc(C)cc2c1=O (stereo not given)	16.6 µM (≈ 6.26 µg/mL)	81.4%	46.2%	55.3%
CCOC(=O)C1=C(C(F)(F)F)NC(=O)NC1c1coc2ccccc2c1=O (stereo not given)	7.9 µM (≈ 3.02 µg/mL)	29.2%	inactive	23.4%
NNC(=O)c1ccncc1 [ISONIAZID]	0.66 µM (≈ 0.0905 µg/mL)	–	–	–
CCOC(=O)C1=C(C(F)(F)F)NC(=O)NC1c1coc2c(ccc3occc32)c1=O (stereo not given)	3.67 µM (≈ 1.55 µg/mL)	32.8%	27.5%	34.3%
CCOC(=O)C1=C(C)NC(=S)NC1c1coc2ccc(C)cc2c1=O (stereo not given)	34.9 µM (≈ 12.5 µg/mL)	43.2%	18.3%	7%
CCOC(=O)C1=C(c2ccccc2)NC(=O)NC1c1coc2cc3occc3cc2c1=O (stereo not given)	14.5 µM (≈ 6.25 µg/mL)	59.1%	13.1%	inactive
COCCOC(=O)C1=C(C)NC(=O)NC1c1coc2ccc(Br)cc2c1=O (stereo not given)	28.7 µM (≈ 12.5 µg/mL)	40.2%	29.9%	38.4%
CCOC(=O)C1=C(C)NC(=O)NC1c1coc2c(ccc3occc32)c1=O (stereo not given)	34 µM (≈ 12.5 µg/mL)	42.4%	33.8%	inactive
CCOC(=O)C1=C(c2ccccc2)NC(=O)NC1c1coc2c(ccc3occc32)c1=O (stereo not given)	14.5 µM (≈ 6.25 µg/mL)	43.3%	33.3%	39.4%
COCCOC(=O)C1=C(C)NC(=O)NC1c1coc2c(ccc3occc32)c1=O (stereo not given)	31.4 µM (≈ 12.5 µg/mL)	61.2%	4.5%	8.4%
CCOC(=O)C1=C(C)NC(=O)NC1c1coc2ccc(C)cc2c1=O (stereo not given)	36.5 µM (≈ 12.5 µg/mL)	16.6%	24.8%	1.7%
CCOC(=O)C1=C(C)NC(=S)NC1c1coc2ccc(-c3ccccc3)cc2c1=O (stereo not given)	59.5 µM (≈ 25 µg/mL)	40.9%	37.4%	25.4%
CCOC(=O)C1=C(C)NC(=O)NC1c1coc2ccccc2c1=O (stereo not given)	76.2 µM (≈ 25 µg/mL)	16.6%	18.1%	19%
CCOC(=O)C1=C(C)NC(=O)NC1c1coc2ccc([N+](=O)[O-])cc2c1=O (stereo not given)	4.18 µM (≈ 1.56 µg/mL)	54.4%	inactive	28.7%
COc1cccc2c1C(=O)c1c(O)c3c(c(O)c1C2=O)C[C@@](O)(C(=O)CO)C[C@@H]3O[C@H]1C[C@H](N)[C@H](O)[C@H](C)O1 [DOXORUBICIN]	–	86.5%	55%	31.8%
CCOC(=O)C1=C(C)NC(=O)NC1c1coc2ccc(Br)cc2c1=O (stereo not given)	30.8 µM (≈ 12.5 µg/mL)	32.8%	51.4%	31.1%
COCCOC(=O)C1=C(C)NC(=O)NC1c1coc2ccc(C)cc2c1=O (stereo not given)	34.1 µM (≈ 12.7 µg/mL)	40.2%	28.4%	35.6%
COCCOC(=O)C1=C(C)NC(=S)NC1c1coc2ccc(C)cc2c1=O (stereo not given)	32.2 µM (≈ 12.5 µg/mL)	17.4%	21.2%	22.8%
CC[C@@H](CO)NCCN[C@@H](CC)CO [ETHAMBUTOL]	7.63 µM (≈ 1.56 µg/mL)	–	–	–
